Our source for the IC50 values is patent US20250282794A1 (CURADEV PHARMA LTD, priority 2022, published 2025).

What is called IC50 is the concentration that inhibits the measured activity by half.

Bounds are passed on as bounds.

For the test, the target named is recombinant full length HPK-1 enzyme (Homo sapiens (Human), UniProt Q92918). In words: HPK-1 biochemical enzyme assay (ADP-Glo kinase inhibition). Particulars: recombinant full length HPK-1 6.8 nM, 10 μM ATP, 12.5 μM MBP, 30 mins at 25° C. The method, then: HPK-1 biochemical enzyme assay
Sequence of recombinant full length HPK-1 enzyme (Q92918 whole entry, species assumed): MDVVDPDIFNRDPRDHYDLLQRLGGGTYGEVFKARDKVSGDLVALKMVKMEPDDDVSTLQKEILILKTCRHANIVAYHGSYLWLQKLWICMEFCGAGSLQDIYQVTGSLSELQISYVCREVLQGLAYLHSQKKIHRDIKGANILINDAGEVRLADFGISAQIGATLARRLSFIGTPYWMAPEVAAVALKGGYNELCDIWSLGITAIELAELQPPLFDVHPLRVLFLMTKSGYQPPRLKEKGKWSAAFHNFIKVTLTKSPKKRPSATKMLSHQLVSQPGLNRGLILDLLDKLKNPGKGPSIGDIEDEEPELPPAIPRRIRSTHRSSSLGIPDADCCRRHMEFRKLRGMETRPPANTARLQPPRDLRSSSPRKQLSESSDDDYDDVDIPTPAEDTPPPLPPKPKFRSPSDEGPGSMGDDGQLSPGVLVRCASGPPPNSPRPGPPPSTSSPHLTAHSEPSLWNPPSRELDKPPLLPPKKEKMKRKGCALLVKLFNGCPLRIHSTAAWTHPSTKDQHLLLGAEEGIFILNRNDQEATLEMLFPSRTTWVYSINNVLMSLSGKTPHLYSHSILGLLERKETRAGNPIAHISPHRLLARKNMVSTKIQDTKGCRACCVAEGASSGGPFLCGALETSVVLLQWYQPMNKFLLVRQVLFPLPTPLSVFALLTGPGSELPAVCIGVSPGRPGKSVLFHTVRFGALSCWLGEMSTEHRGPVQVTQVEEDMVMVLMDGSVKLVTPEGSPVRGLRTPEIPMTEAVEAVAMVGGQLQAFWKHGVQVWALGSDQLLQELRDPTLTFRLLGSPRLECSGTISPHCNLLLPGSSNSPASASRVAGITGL
Compound inhibitory potency was measured in an HPK-1 kinase inhibition assay. Briefly, recombinant full length HPK-1 enzyme (6.8 nM) was incubated with 10 μM ATP and 12.5 μM swine myelin basic protein (MBP) for 30 mins. at 25° C. in the presence of various concentrations of test compound or vehicle in 40 mM Tris.Cl pH7.4 buffer containing 20 mM MgCl2, 50 μM DTT and 0.1 mg/mL BSA. Reactions were quenched and reaction mixtures were then analyzed by an ADP-Glo kit which measures the formed ADP. The percent inhibition was calculated from the substrate conversion considering no enzyme control reactions for 100% inhibition and vehicle only reactions for 0% inhibition. The compounds were dissolved in DMSO and evaluated at 10 concentrations to determine an IC50 value.
In the below table A denotes an HPK-1 IC50≤10 nM, B denotes an HPK-1 IC50>10 nM but≤100 nM and C denotes an HPK-1 IC50>100 nM but≤1000 nM.
For orientation: ADP-Glo first removes unused ATP, then detects ADP through luciferase.

Consider `Cc1c(Nc2cc[nH]c(=O)c2C(=O)Nc2ccc(N3CCC(N)CC3)cc2)cnc2c1NCCO2` [Example 154, N-(4-(4-aminopiperidin-1-yl)phenyl)-4-((8-methyl-2,3-dihydro-1H-pyrido[2,3-b][1,4]oxazin-7-yl)amino)-2-oxo-1,2-dihydropyridine-3-carboxamide], for which the IC50 is not above 0.01 µM.

With `CCC(=O)N1CCN(c2ccc(NC(=O)c3c(Nc4cnc5c(c4C)NCC(C)O5)cc[nH]c3=O)cc2)CC1` (stereo not drawn) [Example 362, 4-((3,8-dimethyl-2,3-dihydro-1H-pyrido[2,3-b][1,4]oxazin-7-yl)amino)-2-oxo-N-(4-(4-propionylpiperazin-1-yl)phenyl)-1,2-dihydropyridine-3-carboxamide], the IC50 was in the range of 0.01 to 0.1 µM.

Turning to `Cc1c(Nc2cc[nH]c(=O)c2C(=O)Nc2ccc(N3CCN(C4COC4)CC3)c(F)c2)cnc2c1NCCO2` [Example 379, N-(3-fluoro-4-(4-(oxetan-3-yl)piperazin-1-yl)phenyl)-4-((8-methyl-2,3-dihydro-1H-pyrido[2,3-b][1,4]oxazin-7-yl)amino)-2-oxo-1,2-dihydropyridine-3-carboxamide], the IC50 was not above 0.01 µM.

`Cc1c(Nc2cc[nH]c(=O)c2C(=O)Nc2ccc3c(c2)NC(=O)CC3)cnc2c1NCCO2` [Example 258, 4-((8-methyl-2,3-dihydro-1H-pyrido[2,3-b][1,4]oxazin-7-yl)amino)-2-oxo-N-(2-oxo-1,2,3,4-tetrahydroquinolin-7-yl)-1,2-dihydropyridine-3-carboxamide]: the IC50 lay within 0.01 to 0.1 µM.

With `Cc1c(Nc2cc[nH]c(=O)c2C(=O)Nc2ccc3c(c2)CCC(=O)N3C)cnc2c1NCCO2` [Example 250, 4-((8-methyl-2,3-dihydro-1H-pyrido[2,3-b][1,4]oxazin-7-yl)amino)-N-(1-methyl-2-oxo-1,2,3,4-tetrahydroquinolin-6-yl)-2-oxo-1,2-dihydropyridine-3-carboxamide], the IC50 is 0.01 to 0.1 µM.

On to `Cc1c(Nc2cc[nH]c(=O)c2C(=O)Nc2ccc(C3CCN(C(C)C)CC3)cc2)cnc2c1NCC(C)O2` (stereo not drawn) [Example 384, 4-((3,8-dimethyl-2,3-dihydro-1H-pyrido[2,3-b][1,4]oxazin-7-yl)amino)-N-(4-(1-isopropylpiperidin-4-yl)phenyl)-2-oxo-1,2-dihydropyridine-3-carboxamide], for which the IC50 fell in the range of 0.01 to 0.1 µM.

In the case of `Cc1c(Nc2cc[nH]c(=O)c2C(=O)Nc2ccc(N3CCN(C)CC3CO)cc2)cnc2c1NCCO2` (stereo not drawn) [Example 408, N-(4-(2-(hydroxymethyl)-4-methylpiperazin-1-yl)phenyl)-4-((8-methyl-2,3-dihydro-1H-pyrido[2,3-b][1,4]oxazin-7-yl)amino)-2-oxo-1,2-dihydropyridine-3-carboxamide], the IC50 lay within 0.01 to 0.1 µM.

As for `COCC(=O)N1CCN(c2ccc(NC(=O)c3c(Nc4cnc5c(c4C)NCCO5)cc[nH]c3=O)cc2)CC1` [Example 284, N-(4-(4-(2-methoxyacetyl)piperazin-1-yl)phenyl)-4-((8-methyl-2,3-dihydro-1H-pyrido[2,3-b][1,4]oxazin-7-yl)amino)-2-oxo-1,2-dihydropyridine-3-carboxamide], the IC50 is not above 0.01 µM.

On to `Cc1c(Nc2cc[nH]c(=O)c2C(=O)Nc2ccc(N3CCC(F)(F)CC3)cc2)cnc2c1NCCO2` [Example 161, N-(4-(4,4-difluoropiperidin-1-yl)phenyl)-4-((8-methyl-2,3-dihydro-1H-pyrido[2,3-b][1,4]oxazin-7-yl)amino)-2-oxo-1,2-dihydropyridine-3-carboxamide], for which the IC50 lay within 0.01 to 0.1 µM.

With `Cc1c(Nc2cc[nH]c(=O)c2C(=O)Nc2ccc(N3CCC(C4CC4)CC3)cc2)cnc2c1NCCO2` [Example 411, N-(4-(4-cyclopropylpiperidin-1-yl)phenyl)-4-((8-methyl-2,3-dihydro-1H-pyrido[2,3-b][1,4]oxazin-7-yl)amino)-2-oxo-1,2-dihydropyridine-3-carboxamide], the half-maximal inhibitory concentration (IC50) was in the range of 0.01 to 0.1 µM.

As to `Cc1c(Nc2cc[nH]c(=O)c2C(=O)Nc2ccc(N3CCN(C(=O)N4CCC(F)(F)C4)CC3)cc2)cnc2c1NCCO2` [Example 143, N-(4-(4-(3,3-difluoropyrrolidine-1-carbonyl)piperazin-1-yl)phenyl)-4-((8-methyl-2,3-dihydro-1H-pyrido[2,3-b][1,4]oxazin-7-yl)amino)-2-oxo-1,2-dihydropyridine-3-carboxamide], the IC50 was not above 0.01 µM.

Take `Cc1cc(NS(C)(=O)=O)ccc1NC(=O)c1c(Nc2cnc3c(c2C)NCCO3)cc[nH]c1=O` [Example 217, 4-((8-methyl-2,3-dihydro-1H-pyrido[2,3-b][1,4]oxazin-7-yl)amino)-N-(2-methyl-4-(methylsulfonamido)phenyl)-2-oxo-1,2-dihydropyridine-3-carboxamide]: the IC50 lay within 0.1 to 1 µM.

As to `COC(C)CN1CCN(c2ccc(NC(=O)c3c(Nc4cnc5c(c4C)NCCO5)cc[nH]c3=O)cc2)CC1` (stereo not drawn) [Example 369, N-(4-(4-(2-methoxypropyl)piperazin-1-yl)phenyl)-4-((8-methyl-2,3-dihydro-1H-pyrido[2,3-b][1,4]oxazin-7-yl)amino)-2-oxo-1,2-dihydropyridine-3-carboxamide], the IC50 was 0.01 to 0.1 µM.

As for `CCn1nccc1-c1ccc(NC(=O)c2c(Nc3cnc4c(c3C)NCCO4)cc[nH]c2=O)cc1` [Example 264, N-(4-(1-ethyl-1H-pyrazol-5-yl)phenyl)-4-((8-methyl-2,3-dihydro-1H-pyrido[2,3-b][1,4]oxazin-7-yl)amino)-2-oxo-1,2-dihydropyridine-3-carboxamide], the concentration for half-maximal inhibition (IC50) fell in the range of 0.01 to 0.1 µM.

For `CNC(=O)N1CCN(c2ccc(NC(=O)c3c(Nc4cnc5c(c4C)NCCO5)cc[nH]c3=O)cc2)CC1` [Example 287, N-methyl-4-(4-(4-((8-methyl-2,3-dihydro-1H-pyrido[2,3-b][1,4]oxazin-7-yl)amino)-2-oxo-1,2-dihydropyridine-3-carboxamido)phenyl)piperazine-1-carboxamide], the IC50 is 0.01 to 0.1 µM.

In the case of `CCOc1cc(NC(=O)c2c(Nc3cnc4c(c3C)NCCO4)cc[nH]c2=O)ccc1N1CCN(C2CC2)CC1` [Example 401, N-(4-(4-cyclopropylpiperazin-1-yl)-3-ethoxyphenyl)-4-((8-methyl-2,3-dihydro-1H-pyrido[2,3-b][1,4]oxazin-7-yl)amino)-2-oxo-1,2-dihydropyridine-3-carboxamide], the IC50 lay in the range of 0.01 to 0.1 µM.

With `Cc1c(Nc2cc[nH]c(=O)c2C(=O)Nc2ccc(-n3ccnc3)cc2)cnc2c1NCCO2` [Example 255, N-(4-(1H-imidazol-1-yl)phenyl)-4-((8-methyl-2,3-dihydro-1H-pyrido[2,3-b][1,4]oxazin-7-yl)amino)-2-oxo-1,2-dihydropyridine-3-carboxamide], the IC50 is 0.01 to 0.1 µM.

For the molecule `CCC(=O)N1CCN(c2ccc(NC(=O)c3c(Nc4cnc5c(c4C)NCCO5)cc[nH]c3=O)cc2)C[C@@H]1C` [Example 345, (S)-4-((8-methyl-2,3-dihydro-1H-pyrido[2,3-b][1,4]oxazin-7-yl)amino)-N-(4-(3-methyl-4-propionylpiperazin-1-yl)phenyl)-2-oxo-1,2-dihydropyridine-3-carboxamide], the IC50 is not above 0.01 µM.

Take `Cc1c(Nc2cc[nH]c(=O)c2C(=O)Nc2ccc3c(c2)OCO3)cnc2c1NCCO2` [Example 244, N-(benzo[d][1,3]dioxol-5-yl)-4-((8-methyl-2,3-dihydro-1H-pyrido[2,3-b][1,4]oxazin-7-yl)amino)-2-oxo-1,2-dihydropyridine-3-carboxamide]: the IC50 was in the range of 0.01 to 0.1 µM.

On to `Cc1c(Nc2cc[nH]c(=O)c2C(=O)Nc2ccc(N3CCN(C#N)CC3)cc2)cnc2c1NCCO2` [Example 352, N-(4-(4-cyanopiperazin-1-yl)phenyl)-4-((8-methyl-2,3-dihydro-1H-pyrido[2,3-b][1,4]oxazin-7-yl)amino)-2-oxo-1,2-dihydropyridine-3-carboxamide], for which the IC50 was in the range of 0.01 to 0.1 µM.

Take `Cc1c(Nc2cc[nH]c(=O)c2C(=O)Nc2ccc(N3C[C@@H]4C[C@H]3CN4C)cc2)cnc2c1NCCO2` [Example 236, 4-((8-methyl-2,3-dihydro-1H-pyrido[2,3-b][1,4]oxazin-7-yl)amino)-N-(4-((1S,4S)-5-methyl-2,5-diazabicyclo[2.2.1]heptan-2-yl)phenyl)-2-oxo-1,2-dihydropyridine-3-carboxamide]: the IC50 lay within 0.01 to 0.1 µM.

As to `Cc1c(Nc2cc[nH]c(=O)c2C(=O)Nc2ccc(N3CCC(C)CC3)cc2)cnc2c1NCCO2` [Example 280, 4-((8-methyl-2,3-dihydro-1H-pyrido[2,3-b][1,4]oxazin-7-yl)amino)-N-(4-(4-methylpiperidin-1-yl)phenyl)-2-oxo-1,2-dihydropyridine-3-carboxamide], the IC50 was in the range of 0.01 to 0.1 µM.

Take `Cc1c(Nc2cc[nH]c(=O)c2C(=O)Nc2ccc(N3CCN(C)C(=O)C3)cc2)cnc2c1NCCO2` [Example 272, 4-((8-methyl-2,3-dihydro-1H-pyrido[2,3-b][1,4]oxazin-7-yl)amino)-N-(4-(4-methyl-3-oxopiperazin-1-yl)phenyl)-2-oxo-1,2-dihydropyridine-3-carboxamide]: the IC50 fell in the range of 0.01 to 0.1 µM.

`COc1c(Nc2cc[nH]c(=O)c2C(=O)Nc2ccc(N3CCN(C)CC3)cc2)cnc2c1NCCO2` [Example 132, 4-((8-Methoxy-2,3-dihydro-1H-pyrido[2,3-b][1,4]oxazin-7-yl)amino)-N-(4-(4-methylpiperazin-1-yl)phenyl)-2-oxo-1,2-dihydropyridine-3-carboxamide]: the IC50 was in the range of 0.01 to 0.1 µM.
